Results on 12 compounds are retold here after PubChem BioAssay (NCI).

Several values for one entry are separate records, joined by “and”; a condition that tells them apart may be missing. Equal entries are not always repeated.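 Cultured in 96-well plates, cells were exposed to test compound for 48 hours across five concentrations. GI50 = concentration required for 50% inhibition of growth. TGI is the concentration that stops growth completely.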

Test systems include SK-MEL-5 melanoma; SNB-78 CNS; TK-10 renal; OVCAR-4 ovarian; DMS 273 small cell lung; HCT-15 colon; SK-OV-3 ovarian; OVCAR-8 ovarian; OVCAR-5 ovarian; BT-549 breast.
Assay in all cases: inhibition of tumour cell growth, NCI panel, 48 h

For the compound `C/C(=N\[N+](C)(C)C)C(c1ccccc1)C1(c2ccccc2)C(c2ccccc2)=C1c1ccccc1` (stereo not given), the TGI in the test with SK-MEL-5 melanoma, with SNB-78 CNS, in the test with TK-10 renal, in the test with OVCAR-4 ovarian, with DMS 273 small cell lung and in the test on HCT-15 colon was above 100 µM in each case. Moreover, the TGI with SK-OV-3 ovarian, in the test on OVCAR-8 ovarian and in the test with OVCAR-5 ovarian was above 100 µM in each case.
`Cc1ccc(NC(=O)/C(=N/NC(=O)CC#N)C2C(=O)N(c3ccccc3)N=C2N)cc1C` (stereo not given): the TGI with SK-MEL-5 melanoma, with SNB-78 CNS, in the test on TK-10 renal, with OVCAR-4 ovarian, in the test on DMS 273 small cell lung and in the test on HCT-15 colon was above 100 µM each time. Moreover, the TGI in the test on SK-OV-3 ovarian, in the test on OVCAR-8 ovarian and in the test with OVCAR-5 ovarian was above 100 µM in each case.
Take `NC1=NN(c2ccccc2)C(=O)C1C(=O)C(=O)Nc1cccc(C(F)(F)F)c1` (stereo not given): the TGI in the test on SK-MEL-5 melanoma, in the test with SNB-78 CNS, in the test with TK-10 renal, in the test with OVCAR-4 ovarian, in the test with DMS 273 small cell lung and in the test with HCT-15 colon was above 100 µM throughout. The TGI in the test on SK-OV-3 ovarian, with OVCAR-8 ovarian and with OVCAR-5 ovarian was above 100 µM each time.
With `O=C(/C=C\c1cccc2ccccc12)c1ccc(Br)cc1`, the TGI with SK-MEL-5 melanoma was 38.7 µM; in the test on SNB-78 CNS, 41.5 µM; with TK-10 renal, above 100 µM; with OVCAR-4 ovarian, 35.5 µM; with DMS 273 small cell lung it was 34.5 µM; with HCT-15 colon, 34.7 µM. Moreover, the TGI with SK-OV-3 ovarian was found to be 93.6 µM; in the test on OVCAR-8 ovarian it was 33 µM; in the test with OVCAR-5 ovarian it was 47.4 µM.
Take `O[C@H]1[C@H]2[C@H](O)CCCN2C[C@H]1O`: the TGI in the test with SK-MEL-5 melanoma, with SNB-78 CNS, with TK-10 renal, in the test on OVCAR-4 ovarian, in the test with DMS 273 small cell lung and with HCT-15 colon was above 100 µM each time. For the same compound, the TGI in the test on SK-OV-3 ovarian, with OVCAR-8 ovarian and in the test with OVCAR-5 ovarian was above 100 µM throughout.
Turning to `Nc1nc(F)nc2c1ncn2C1OC(COP(=O)(O)O)C(O)C1O` (stereo not given), the TGI in the test with SK-MEL-5 melanoma was 406 µM; in the test with SNB-78 CNS, 636 µM; with TK-10 renal, 773 µM; in the test on OVCAR-4 ovarian, 987 µM; with DMS 273 small cell lung, 821 µM; in the test with HCT-15 colon, 1080 µM. In addition, the TGI in the test with SK-OV-3 ovarian was 292 µM; in the test with OVCAR-8 ovarian, 196 µM; in the test on OVCAR-5 ovarian, 617 µM; in the test with BT-549 breast, 302 µM.
For the compound `O=C1C(Br)=C(c2ccccc2)C(c2ccccc2)=C1c1ccccc1`, the TGI was found to be 9.35 µM in the test on SK-MEL-5 melanoma; 4.26 µM in the test with SNB-78 CNS; 7.12 µM in the test on TK-10 renal; 4.98 µM in the test with OVCAR-4 ovarian; 3.68 µM in the test on DMS 273 small cell lung; 4.03 µM in the test with HCT-15 colon. For the same compound, the TGI in the test with SK-OV-3 ovarian came out at 29.3 µM; in the test with OVCAR-8 ovarian, 4.46 µM; in the test with OVCAR-5 ovarian it was 25.5 µM; in the test on BT-549 breast, 10.9 µM.
On to `COc1ccc(/C(Cl)=C(\C=O)c2cc(OC)c(OC)c(OC)c2)cc1OC`, for which the TGI in the test on SK-MEL-5 melanoma was above 100 µM; with SNB-78 CNS, 88.1 µM; in the test with TK-10 renal it was above 100 µM; in the test on OVCAR-4 ovarian it was above 100 µM; with DMS 273 small cell lung, above 100 µM; in the test with HCT-15 colon, above 100 µM. Further, the TGI with SK-OV-3 ovarian is above 100 µM; in the test on OVCAR-8 ovarian it was above 63.5 µM; in the test on OVCAR-5 ovarian, above 100 µM.
As to `C/C=C/CP(=O)(c1ccccc1)c1ccccc1`, the TGI in the test on SK-MEL-5 melanoma, in the test on SNB-78 CNS, with TK-10 renal, in the test with OVCAR-4 ovarian, with DMS 273 small cell lung and in the test on HCT-15 colon was above 100 µM throughout. For the same compound, the TGI with SK-OV-3 ovarian, with OVCAR-8 ovarian and with OVCAR-5 ovarian was above 100 µM each time.
As for `NC(=S)N/N=C1\C(=O)N(c2cccc([N+](=O)[O-])c2)C(=O)C1C(=O)Nc1cccc([N+](=O)[O-])c1` (stereo not given), the TGI in the test on SK-MEL-5 melanoma, in the test on SNB-78 CNS, in the test on TK-10 renal, in the test on OVCAR-4 ovarian, in the test with DMS 273 small cell lung and with HCT-15 colon was above 100 µM throughout. Moreover, the TGI in the test with SK-OV-3 ovarian, with OVCAR-8 ovarian and in the test on OVCAR-5 ovarian was above 100 µM each time.
With `CC1=Cc2cc3[n-]c(cc4nc(cc5[n-]c(cc1n2)c(C)c5CCC(=O)O)C(CCC(=O)O)=C4C)cc3C.[Cu+2]`, the GI50 in the test with SK-MEL-5 melanoma was > 1 µM and 14.5 µM; in the test with SNB-78 CNS, > 1 µM and 2.07 µM; with TK-10 renal it was > 1 µM and 17.6 µM; with OVCAR-4 ovarian it was above 100 µM; in the test on DMS 273 small cell lung, above 39.8 µM; in the test on HCT-15 colon, > 1 µM and 52.7 µM. The GI50 is > 1 µM and 18.8 µM in the test with SK-OV-3 ovarian; > 1 µM and 19.6 µM with OVCAR-8 ovarian; above 100 µM with OVCAR-5 ovarian; 14.5 µM in the test with BT-549 breast. In addition, the TGI with SK-MEL-5 melanoma was > 1 µM and 31.5 µM; in the test on SNB-78 CNS, > 1 µM and 8.92 µM; in the test on TK-10 renal, > 1 µM and 38.3 µM; with OVCAR-4 ovarian it was above 100 µM; with DMS 273 small cell lung it was above 55.9 µM; with HCT-15 colon, above 86.7 µM. For the same compound, the TGI in the test with SK-OV-3 ovarian was > 1 µM and 41.9 µM; in the test with OVCAR-8 ovarian it was > 1 µM and 54.7 µM; in the test with OVCAR-5 ovarian it was above 100 µM; with BT-549 breast, 27.8 µM.
Regarding `CC1(C)OC(=O)C=C(O)O1.CC1(C)OC(=O)C=C(O)O1.CCO.Oc1ccc2c(c1)CCC2.[Ti]`, the GI50 in the test on SK-MEL-5 melanoma, in the test with SNB-78 CNS, in the test with TK-10 renal, in the test with OVCAR-4 ovarian, in the test on DMS 273 small cell lung and in the test with HCT-15 colon was above 100 µM each time. In addition, the GI50 with SK-OV-3 ovarian, in the test on OVCAR-8 ovarian and in the test on OVCAR-5 ovarian was above 100 µM each time. Also, the TGI with SK-MEL-5 melanoma, with SNB-78 CNS, with TK-10 renal, with OVCAR-4 ovarian, with DMS 273 small cell lung and in the test with HCT-15 colon was above 100 µM in each case. For the same compound, the TGI in the test with SK-OV-3 ovarian, with OVCAR-8 ovarian and in the test on OVCAR-5 ovarian was above 100 µM throughout.
